The values below come from patent US4298727A, “3',4'-Dideoxykanamycin A and 1-N-(S)-α-hydroxy-ω-aminoalkanoyl) derivatives thereof” (Zaidan Hojin Biseibutsu Kagaku KenkyuKai, priority 1979, dated 1981).

Data set [1] concerns mice. The data set is described as follows: acute toxicity, intravenous injection in mice. Format: in vivo. An excerpt:
Therefore, the new compounds of this invention are useful in therapeutic treatment of infections by various gram-negative and gram-positive bacteria, including the resistant bacterial strains. […] Accordingly, the low toxicity of the above new compounds of general formula (I) according to this invention is note-worthy, and the low toxicity of the new compounds of this invention with retaining the antibacterial activity substantially as high as that of the above-described known drugs will facilitate the clinical use of the new compounds, fulfilling the modern demand for providing efficient and less toxic drugs.

Data set [2] relates to Staphylococcus aureus APOI. The experiment in a line: MIC, standard serial dilution on nutrient agar. Type of data set: cell-based.
For data set [3], the system named is Klebsiella pneumoniae 22 #3038. The data set is described as follows: MIC, standard serial dilution on nutrient agar. Format: cell-based.
Data set [4] has as its system Klebsiella HOU. The experiment in a line: MIC, standard serial dilution on nutrient agar. Type of data set: cell-based.
The subject of data set [5] is Escherichia coli K-12. The experiment in a line: MIC, standard serial dilution on nutrient agar. Format: cell-based. The following applies: K12, 37° C., 18 hours.
For data set [6], the system named is Serratia CAT. The data set is described as follows: MIC, standard serial dilution on nutrient agar. Type of data set: cell-based.
Data set [7] deals with Enterobacter 666. The data set is described as follows: MIC, standard serial dilution on nutrient agar. Format: cell-based. Conditions: 37° C., 18 hours.
Data set [8] deals with Proteus rettgeri AUB. The data set is described as follows: MIC, standard serial dilution on nutrient agar. Type of data set: cell-based. The following applies: Providencia rettgeri.
For data set [9], the system named is Proteus vulgaris BAC. The experiment in a line: MIC, standard serial dilution on nutrient agar. Format: cell-based.
Data set [10] concerns Serratia 7. The experiment in a line: MIC, standard serial dilution on nutrient agar. Type of data set: cell-based.
For data set [11], the system named is Sarcina lutea PCI 1001. The experiment in a line: MIC, standard serial dilution on nutrient agar. Type of data set: cell-based. Conditions: Micrococcus luteus.
Data set [12] relates to Erwinia 7-22. The data set is described as follows: MIC, standard serial dilution on nutrient agar. Type of data set: cell-based. The following applies: 722, 37° C., 18 hours.
Data set [13] deals with Staphylococcus aureus 209P. The data set is described as follows: MIC, standard serial dilution on nutrient agar. Type of data set: cell-based.
The test system of data set [14] is Providencia ZAO. The data set is described as follows: MIC, standard serial dilution on nutrient agar. Format: cell-based.
Data set [15] deals with Klebsiella BRIA. The experiment in a line: MIC, standard serial dilution on nutrient agar. Format: cell-based. Conditions: Klebsiella, 18 h.
Data set [16] relates to Pseudomonas aeruginosa A3. The experiment in a line: MIC, standard serial dilution on nutrient agar. Format: cell-based.
Data set [17] has as its system Providencia Pv 37. The experiment in a line: MIC, standard serial dilution on nutrient agar. Format: cell-based. The following applies: PV37, 37° C., 18 hours.
Data set [18] deals with Staphylococcus aureus MS 9883. The data set is described as follows: MIC, standard serial dilution on nutrient agar. Type of data set: cell-based.
Data set [19] concerns Klebsiella THO. The data set is described as follows: MIC, standard serial dilution on nutrient agar. Type of data set: cell-based. Conditions: Klebsiella, 18 h.
For data set [20], the system named is resistant bacteria. The following applies: in words, from Table 1. The procedure: The minimum inhibitory concentrations (mcg/ml) of the new compounds of this invention against various microorganisms were determined according to a standard serial dilution method using nutrient agar incubation medium at 37° C., the estimation being made after 18 hours incubation. For comparison purpose, the MIC. of kanamycin A, amikacin and dibekacin was also determined under the same test conditions.

The subject of data set [21] is Providencia 19. The experiment in a line: MIC, standard serial dilution on nutrient agar. Type of data set: cell-based.
For data set [22], the system named is Escherichia coli K-12 ML 1629. The data set is described as follows: MIC, standard serial dilution on nutrient agar. Type of data set: cell-based. Conditions: K12ML1629, 37° C., 18 hours.
Data set [23] relates to Pyocyanique. The experiment in a line: MIC, standard serial dilution on nutrient agar. Type of data set: cell-based.
Data set [24] deals with Staphylococcus aureus MS 9610. The data set is described as follows: MIC, standard serial dilution on nutrient agar. Format: cell-based. Conditions: Staphylococcus aureus, MS9610, 18 h.
Data set [25] relates to Staphylococcus epidermides 109. The data set is described as follows: MIC, standard serial dilution on nutrient agar. Type of data set: cell-based. Conditions: Staphylococcus, 109, 18 h.
The test system of data set [26] is Enterobacter HAU. The experiment in a line: MIC, standard serial dilution on nutrient agar. Format: cell-based.
Data set [27] deals with Serratia BOT. The experiment in a line: MIC, standard serial dilution on nutrient agar. Format: cell-based. Conditions: Serratia, 18 h.
[28] abbreviates: Pseudomonas aeruginosa, A3, 18 h.
The mark [29] stands for this setting: Staphylococcus aureus, MS9883, 18 h.
Where [30] appears, read: Enterobacter HAU, nutrient agar, 37° C., 18 hours, read-out: MIC.
Setting [31] is: Staphylococcus aureus, 209P, 18 h.

The term MIC denotes the lowest concentration that inhibits growth of the organism.

Converted amounts (≈) assume the structure as drawn. Like-named read-outs stand apart in the source and are kept apart here.

For the compound gentamicin, the “LD50 value (acute toxicity)” value in [1] is 80 to 120 mg/kg.
In the case of `NCC1CCC(O)C(OC2C(N)CC(N)C(OC3OC(CO)C(O)C(N)C3O)C2O)O1` (stereo not drawn) [Compound No. 1, 3',4'-dideoxykanamycin A], the MIC is 3.12 µg/mL (≈ 6.89 µM) in data set [2] (Staphylococcus aureus APOI, nutrient agar, 37° C., 18 hours, read-out: MIC.); above 100 µg/mL in data set [3] (Klebsiella pneumoniae, 18 h); above 100 µg/mL in data set [4] (Klebsiella, 18 h); 6.25 µg/mL (≈ 13.8 µM) in [5]; 12.5 µg/mL (≈ 27.6 µM) in data set [6] (Serratia CAT, nutrient agar, 37° C., 18 hours, read-out: MIC.); 100 µg/mL (≈ 221 µM) in [7]. Also, the minimal inhibitory concentration (MIC) in data set [8] (18 h) is above 100 µg/mL; in data set [9] (Proteus vulgaris BAC, nutrient agar, 37° C., 18 hours, read-out: MIC.), 3.12 µg/mL (≈ 6.89 µM); in data set [10] (Serratia, 7, 18 h) it was above 100 µg/mL; in data set [11] (PCI1001, 18 h) it was 12.5 µg/mL (≈ 27.6 µM); in data set [12], above 100 µg/mL; in data set [13] (Staphylococcus aureus 209P, nutrient agar, 37° C., 18 hours, read-out: MIC.), 3.12 µg/mL (≈ 6.89 µM). Also, the MIC is 12.5 µg/mL (≈ 27.6 µM) in data set [14] (Providencia ZAO, nutrient agar, 37° C., 18 hours, read-out: MIC.); above 100 µg/mL in data set [15]; 6.25 µg/mL (≈ 13.8 µM) in data set [16] (setting [28]); above 100 µg/mL in data set [17]; 6.25 µg/mL (≈ 13.8 µM) in data set [18] (setting [29]); 6.25 µg/mL (≈ 13.8 µM) in [19]. Moreover, the MIC in data set [21] (Providencia, 19, 18 h) was 100 µg/mL (≈ 221 µM); in data set [22], 6.25 µg/mL (≈ 13.8 µM); in data set [23] (18 h), above 100 µg/mL; in data set [24], 6.25 µg/mL (≈ 13.8 µM); in data set [25] it was 6.25 µg/mL (≈ 13.8 µM); in data set [26] (setting [30]) it was 12.5 µg/mL (≈ 27.6 µM). Further, in data set [27], the MIC was found to be 50 µg/mL (≈ 110 µM). In [20], the “antibacterial activity against various resistant bacteria” value is recorded as “remarkably higher antibacterial activity against various resistant bacteria than the parent kanamycin A”.
Turning to `NCCC(O)C(=O)NC1CC(N)C(OC2OC(CN)CCC2O)C(O)C1OC1OC(CO)C(O)C(N)C1O` [Compound No. 2, 1-N-((S)-2-hydroxy-4-aminobutyryl)-3',4'-dideoxykanamycin A], the MIC amounted to 0.78 µg/mL (≈ 1.41 µM) in [2] (Staphylococcus aureus, 18 h); 3.12 µg/mL (≈ 5.64 µM) in data set [3] (Klebsiella pneumoniae 22 #3038, nutrient agar, 37° C., 18 hours, read-out: MIC.); 3.12 µg/mL (≈ 5.64 µM) in data set [4] (Klebsiella HOU, nutrient agar, 37° C., 18 hours, read-out: MIC.); 1.56 µg/mL (≈ 2.82 µM) in data set [5]; 6.25 µg/mL (≈ 11.3 µM) in [6] (Serratia, 18 h); 0.78 µg/mL (≈ 1.41 µM) in data set [7]. Also, the MIC in data set [8] (Proteus rettgeri AUB, nutrient agar, 37° C., 18 hours, read-out: MIC.) came out at 3.12 µg/mL (≈ 5.64 µM); in data set [9] (Proteus vulgaris, 18 h), 1.56 µg/mL (≈ 2.82 µM); in [10] (Serratia 7, nutrient agar, 37° C., 18 hours, read-out: MIC.) it was 3.12 µg/mL (≈ 5.64 µM); in data set [11] (PCI1001, Sarcina lutea PCI 1001, nutrient agar, 37° C., 18 hours, read-out: MIC.), 3.12 µg/mL (≈ 5.64 µM); in data set [12], 0.78 µg/mL (≈ 1.41 µM); in data set [13] (setting [31]), 1.56 µg/mL (≈ 2.82 µM). The minimum inhibitory concentration (MIC) in data set [14] (Providencia, 18 h) worked out at 6.25 µg/mL (≈ 11.3 µM); in [15] it was 1.56 µg/mL (≈ 2.82 µM); in data set [16] (Pseudomonas aeruginosa A3, nutrient agar, 37° C., 18 hours, read-out: MIC.), 3.12 µg/mL (≈ 5.64 µM); in data set [17], 6.25 µg/mL (≈ 11.3 µM); in data set [18] (MS9883, Staphylococcus aureus MS 9883, nutrient agar, 37° C., 18 hours, read-out: MIC.) it was 3.12 µg/mL (≈ 5.64 µM); in [19], 1.56 µg/mL (≈ 2.82 µM). For the same compound, the MIC turned out to be 3.12 µg/mL (≈ 5.64 µM) in [21] (Providencia 19, nutrient agar, 37° C., 18 hours, read-out: MIC.); 1.56 µg/mL (≈ 2.82 µM) in data set [22]; 12.5 µg/mL (≈ 22.6 µM) in [23] (Pyocyanique, nutrient agar, 37° C., 18 hours, read-out: MIC.); 1.56 µg/mL (≈ 2.82 µM) in data set [24]; 0.78 µg/mL (≈ 1.41 µM) in data set [25]; 12.5 µg/mL (≈ 22.6 µM) in data set [26] (setting [30]). The same compound registered an MIC in data set [27] of 6.25 µg/mL (≈ 11.3 µM). In data set [20], the “antibacterial activity against various resistant bacteria” value is “higher antibacterial activity against the various resistant bacteria than amikacin”.
On to `NCC1OC(OC2C(N)CC(N)C(OC3OC(CO)C(O)C(N)C3O)C2O)C(O)C(O)C1O` (stereo not drawn) [Kanamycin A], for which the MIC in data set [2] (Staphylococcus aureus, 18 h) was 12.5 µg/mL (≈ 25.8 µM); in data set [3] (Klebsiella pneumoniae, 18 h), above 100 µg/mL; in data set [4] (Klebsiella, 18 h), above 100 µg/mL; in [5], 3.12 µg/mL (≈ 6.44 µM); in data set [6] (Serratia, 18 h) it was above 100 µg/mL; in data set [7], above 100 µg/mL. The MIC in data set [8] (18 h) was above 100 µg/mL; in data set [9] (Proteus vulgaris, 18 h) it was above 100 µg/mL; in data set [10] (Serratia, 7, 18 h), above 100 µg/mL; in data set [11] (PCI1001, 18 h), 12.5 µg/mL (≈ 25.8 µM); in data set [12], above 100 µg/mL; in [13] (setting [31]) it was 3.12 µg/mL (≈ 6.44 µM). The MIC is above 100 µg/mL in data set [14] (Providencia, 18 h); above 100 µg/mL in data set [15]; 25 µg/mL (≈ 51.6 µM) in data set [16] (setting [28]); above 100 µg/mL in data set [17]; 6.25 µg/mL (≈ 12.9 µM) in data set [18] (setting [29]); above 100 µg/mL in data set [19]. Moreover, the MIC in data set [21] (Providencia, 19, 18 h) is above 100 µg/mL; in [22] it was above 100 µg/mL; in [23] (18 h) it was 50 µg/mL (≈ 103 µM); in data set [24], 6.25 µg/mL (≈ 12.9 µM); in [25], 25 µg/mL (≈ 51.6 µM); in [26] (Enterobacter, 18 h) it was above 100 µg/mL. This compound also returned an MIC in data set [27] of 6.25 µg/mL (≈ 12.9 µM).
